Results from patent publication US3960837A, “Polyamine compounds and methods for their production” (Parke, Davis & Company, priority 1974, dated 1976).

Legend:
Format in all cases: cell-based
[1] = system: Pseudomonas aeruginosa Aquilar; assay: in vitro antibacterial screening, minimal inhibitory concentration, Pseudomonas aeruginosa Aquilar (butirosin resistant strain); conditions: Pseudomonas aeruginosa Aquilar (1 strain), Tryptic Soy broth, free base equivalent
Text: (§1) Aminotrideoxybutirosin A and its acid-addition salts posses antibacterial activity. They show activity when tested by well-recognized in vitro antibacterial screening procedures. […] Where more than a single strain of test organism is indicated an average or approximate minimal inhibitory concentration is given.
(§2) *Butirosin resistant strain

Klebsiella pneumoniae = assay: in vitro antibacterial screening, minimal inhibitory concentration, Klebsiella pneumoniae; conditions: Klebsiella pneumoniae (1 strain); Tryptic Soy broth; free base equivalent
Text: as §1

Serratia marcescens = assay: in vitro antibacterial screening, minimal inhibitory concentration, Serratia marcescens; conditions: Serratia marcescens (1 strain); Tryptic Soy broth; free base equivalent
Text: as §1

Escherichia coli = assay: in vitro antibacterial screening, minimal inhibitory concentration, Escherichia coli; conditions: Escherichia coli (1 strain); Tryptic Soy broth; free base equivalent
Text: as §1

Staphylococcus aureus = assay: in vitro antibacterial screening, minimal inhibitory concentration, Staphylococcus aureus (butirosin resistant strain); conditions: Staphylococcus aureus (1 strain), Tryptic Soy broth, free base equivalent
Text: as §1, §2

Enterobacter cloacae = assay: in vitro antibacterial screening, minimal inhibitory concentration, Enterobacter cloacae; conditions: Enterobacter cloacae (1 strain); Tryptic Soy broth; free base equivalent
Text: as §1

Pseudomonas aeruginosa = assay: in vitro antibacterial screening, minimal inhibitory concentration, Pseudomonas aeruginosa; conditions: Pseudomonas aeruginosa (6 strains), average or approximate; Tryptic Soy broth; free base equivalent
Text: as §1

Row | Molecule | MIC [1] [µg/mL] | MIC (Klebsiella pneumoniae) [µg/mL] | MIC (Serratia marcescens) [µg/mL] | MIC (Escherichia coli) [µg/mL] | MIC (Staphylococcus aureus) [µg/mL] | MIC (Enterobacter cloacae) [µg/mL] | MIC (Pseudomonas aeruginosa) [µg/mL] | Minimal Inhibitory Concentration [1] [micrograms/ml] | Minimal Inhibitory Concentration (Klebsiella pneumoniae) [micrograms/ml] | Minimal Inhibitory Concentration (Serratia marcescens) [micrograms/ml] | Minimal Inhibitory Concentration (Escherichia coli) [micrograms/ml] | Minimal Inhibitory Concentration (Staphylococcus aureus) [micrograms/ml] | Minimal Inhibitory Concentration (Enterobacter cloacae) [micrograms/ml] | Minimal Inhibitory Concentration (Pseudomonas aeruginosa) [micrograms/ml]
1 | NCC[C@H](O)C(=O)N[C@@H]1C[C@H](N)[C@@H](O[C@H]2O[C@H](CN)CC[C@H]2N)[C@H](O[C@@H]2O[C@H](CN)[C@H](O)[C@H]2O)[C@H]1O [Aminotrideoxybutirosin A, O-2,6-Diamino-2,3,4,6-tetradeoxy-α-D-erythro-hexopyranosyl-(1→4)-O-[5-amino-5-deoxy-β-D-xylofuranosyl-(1→5)]-N^1-[(S)-4-amino-2-hydroxy-1-oxobutyl]-2-deoxystreptamine] | 6.3 | 6.3 | 12.5 | 12.5 | 3.1 | 6.3 | 3.6 |  |  |  |  |  |  | 
2 | Butirosin |  |  |  |  |  |  |  | > 200 | 6.3 | 25 | > 200 | 50 | 6.3 | 19.8
